Assay results reported in patent publication US11142515B2, “Pyrazolyl-ureas as kinase inhibitors” (RESPIVERT LIMITED, priority 2014, dated 2021).

Legend:
GSK 3α enzyme isoform = target: T1, GSK 3α enzyme isoform (Homo sapiens, UniProt P49840); test: GSK 3α enzyme inhibition (Z-LYTE FRET); format: biochemical; conditions: Table 2A; read-out: IC50 Values for Enzyme Inhibition GSK3α
T1 construct: purchased Life Technologies
Description: (§1) The enzyme inhibitory activities of compounds disclosed herein were determined by FRET using synthetic peptides labelled with both donor and acceptor fluorophores (Z-LYTE, Life Technologies, Paisley, UK).
The GSK3a protein (500 ng/mL, 2.5 μL) was incubated with the test compound (2.5 μL at either 40 μg/mL, 12 μg/mL, 4 μg/mL, 1.2 μg/mL, 0.4 μg/mL, 0.12 μg/mL, 0.04 μg/mL, 0.012 μg/mL, 0.004 μg/mL or 0.0012 μg/mL) for 2 h at RT. The FRET peptide (8 μM, 2.5 μL), which is a phosphorylation target for GSK3α, and ATP (40 μM, 2.5 μL) was then added to the enzyme/compound mixture and the resulting mixture incubated for 1 h at RT. Development reagent (protease, 5 μL) was added for 1 h prior to detection in a fluorescence microplate reader (EnVision, Perkin Elmer).
(§2) In all cases, the site-specific protease cleaves non-phosphorylated peptide only and eliminates the FRET signal. Phosphorylation levels of each reaction were calculated using the ratio of coumarin emission (donor) over fluorescein emission (acceptor), for which low ratios indicate high phosphorylation and high ratios indicate low phosphorylation levels.

Hck = target: T2, Hck (Homo sapiens, UniProt P08631); test: Hck enzyme inhibition (Z-LYTE FRET); format: biochemical; conditions: Table 2A
T2 construct: purchased Life Technologies
T2 sequence (P08631 22-526): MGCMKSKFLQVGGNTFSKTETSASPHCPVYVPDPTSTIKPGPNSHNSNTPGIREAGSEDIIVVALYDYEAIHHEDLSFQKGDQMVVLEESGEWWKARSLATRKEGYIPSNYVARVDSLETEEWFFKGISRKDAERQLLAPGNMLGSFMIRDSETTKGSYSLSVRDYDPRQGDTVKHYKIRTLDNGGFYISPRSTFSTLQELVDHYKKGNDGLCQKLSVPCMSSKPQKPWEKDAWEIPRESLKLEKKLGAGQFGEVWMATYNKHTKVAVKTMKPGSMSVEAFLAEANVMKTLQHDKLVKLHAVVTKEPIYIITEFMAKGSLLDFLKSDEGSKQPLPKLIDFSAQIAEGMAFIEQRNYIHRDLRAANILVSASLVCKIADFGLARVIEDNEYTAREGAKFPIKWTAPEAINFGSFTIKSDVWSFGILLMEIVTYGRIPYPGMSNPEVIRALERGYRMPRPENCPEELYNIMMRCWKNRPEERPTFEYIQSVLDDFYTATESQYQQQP
Description: as §1
(§3) The relevant enzyme (1000 ng/mL, 1400 ng/mL or 2000 ng/mL respectively, 2.5 μL) was incubated with the test compound (either 40 μg/mL, 12 μg/mL, 4 μg/mL, 1.2 μg/mL, 0.4 μg/mL, 0.12 μg/mL, 0.04 μg/mL, 0.012 μg/mL, 0.004 μg/mL or 0.0012 μg/mL, 2.5 μL each) for 2 h at RT. The FRET peptides (8 μM, 2.5 μL), and appropriate ATP solutions (2.5 μL, 800 μM for c-Src, and 60 μM ATP for HCK and Syk) were then added to the enzyme/compound mixtures and incubated for 1 h at RT. Development reagent (protease, 5 μL) was added for 1 h prior to detection in a fluorescence microplate reader (EnVision, Perkin Elmer).
as §2

[1] = target: T3, p38 MAPKα isoform (MAPK14) (Homo sapiens, UniProt Q16539); test: p38 MAPKα enzyme inhibition (Z-LYTE FRET); format: biochemical; conditions: Table 2A; read-out: IC50 Values for Enzyme Inhibition p38 MAPKα
T3 construct: purchased Life Technologies
T3 sequence (Q16539 whole entry, canonical isoform): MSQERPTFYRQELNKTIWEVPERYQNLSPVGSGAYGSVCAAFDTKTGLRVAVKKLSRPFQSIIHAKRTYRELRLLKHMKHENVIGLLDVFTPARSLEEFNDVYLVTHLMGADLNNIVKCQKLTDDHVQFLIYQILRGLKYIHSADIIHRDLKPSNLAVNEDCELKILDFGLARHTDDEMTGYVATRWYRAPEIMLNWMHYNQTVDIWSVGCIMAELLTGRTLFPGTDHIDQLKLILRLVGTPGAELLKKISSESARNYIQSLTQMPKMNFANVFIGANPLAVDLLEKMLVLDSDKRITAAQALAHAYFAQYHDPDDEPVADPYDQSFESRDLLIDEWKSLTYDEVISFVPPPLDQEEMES
How it was run: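 Activity was measured indirectly as phosphorylation of a MAPKAP-K2-derived FRET peptide. Enzyme (added at 40 ng/mL) was preincubated 2 h at RT with compound (added solutions 40–0.0012 μg/mL).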

[2] = tested on: IL-8 release in d-U937 cells; test: LPS-induced IL-8 release in d-U937 cells; format: cell-based; conditions: Homo sapiens, dU937, LPS 0.1 μg/mL 4 h
Description: U937 cells, a human monocytic cell line, were differentiated into macrophage-type cells by incubation with PMA (100-200 ng/mL) for 48 to 72 h. Cells were pre-incubated with final […] concentrations of test compound for 2 h and were then stimulated with LPS (0.1 μg/mL; from E. coli: O111:B4, Sigma) for 4 h. The supernatant was collected for determination of TNFα and IL-8 concentrations by sandwich ELISA (Duo-set, R&D systems). […] The relative 50% effective concentration (REC50) was determined from the resultant concentration-response curve. The inhibition of IL-8 production was calculated at each concentration of test compound by comparison with vehicle control.

c-Src = target: T4, c-Src (Homo sapiens, UniProt P12931); test: c-Src enzyme inhibition (Z-LYTE FRET); format: biochemical; conditions: Table 2A
T4 construct: purchased Life Technologies
T4 sequence (P12931 whole entry): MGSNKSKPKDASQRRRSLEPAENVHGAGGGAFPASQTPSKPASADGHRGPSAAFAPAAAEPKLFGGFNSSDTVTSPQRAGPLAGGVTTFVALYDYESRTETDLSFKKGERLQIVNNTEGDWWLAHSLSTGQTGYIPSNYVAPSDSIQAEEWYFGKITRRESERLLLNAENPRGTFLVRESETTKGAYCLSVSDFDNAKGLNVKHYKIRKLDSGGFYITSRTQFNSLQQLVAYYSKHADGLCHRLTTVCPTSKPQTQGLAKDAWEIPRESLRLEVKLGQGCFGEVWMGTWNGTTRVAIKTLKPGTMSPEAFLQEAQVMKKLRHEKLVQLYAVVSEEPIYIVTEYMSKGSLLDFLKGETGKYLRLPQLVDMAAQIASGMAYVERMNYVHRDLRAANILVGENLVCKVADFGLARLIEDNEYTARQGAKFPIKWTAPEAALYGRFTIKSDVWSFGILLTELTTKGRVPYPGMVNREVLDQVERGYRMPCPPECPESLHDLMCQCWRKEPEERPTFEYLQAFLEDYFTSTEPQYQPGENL
Description: as §1, §3, §2

[3] = tested on: ICAM-1 expression in BEAS2B cells; test: Poly I:C-induced ICAM-1 expression in BEAS2B cells; format: cell-based; conditions: Homo sapiens, BEAS-2B, read-out: PolyIC/ICAM1 IC50 (BEAS2B)
Description: Poly I:C was used in these studies as a simple, RNA virus mimic. Poly I:C-Oligofectamine mixture (2% Oligofectamine±1 μg/mL Poly I:C, 25 μL; Life Technologies and Invivogen Ltd., San Diego, Calif., respectively) was transfected into BEAS2B cells (human bronchial epithelial cells, ATCC). Cells were pre-incubated with final concentrations of test compounds for 2 h and the level of ICAM-1 expression on the cell surface was determined by cell-based ELISA. At a time point 18 h after poly I:C transfection, cells were fixed with 4% formaldehyde in PBS (100 μL) and then endogenous peroxidase was quenched by the addition of washing buffer (100 μL, 0.05% Tween in PBS: PBS-Tween) containing 0.1% sodium azide and 1% hydrogen peroxide. Cells were washed with wash-buffer (3×200 μL). After blocking the wells with 5% milk in PBS-Tween (100 μL) for 1 h, the cells were incubated with anti-human ICAM-1 antibody (50 μL; Cell Signaling Technology, Danvers, Mass.) in 1% BSA PBS overnight at 4° C.
The cells were washed with PBS-Tween (3×200 μL) and incubated with the secondary antibody (100 μL; HRP-conjugated anti-rabbit IgG, Dako Ltd., Glostrup, Denmark). The cells were then incubated with of substrate (50 μL) for 2-20 min, followed by the addition of stop solution (50 μL, 1N H2SO4). The ICAM-1 signal was detected by reading the absorbance at 450 nm against a reference wavelength of 655 nm using a spectrophotometer. The cells ware then washed with PBS-Tween (3×200 μL) and total cell numbers in each well were determined by reading absorbance at 595 nm after Crystal Violet staining (50 μL of a 2% solution in PBS) and elution by 1% SDS solution (100 μL) in PBS. The measured OD 450-655 readings were corrected for cell number by dividing with the OD595 reading in each well. The inhibition of ICAM-1 expression was calculated at each concentration of test compound by comparison with vehicle control.

T1 sequence (P49840 whole entry, canonical isoform): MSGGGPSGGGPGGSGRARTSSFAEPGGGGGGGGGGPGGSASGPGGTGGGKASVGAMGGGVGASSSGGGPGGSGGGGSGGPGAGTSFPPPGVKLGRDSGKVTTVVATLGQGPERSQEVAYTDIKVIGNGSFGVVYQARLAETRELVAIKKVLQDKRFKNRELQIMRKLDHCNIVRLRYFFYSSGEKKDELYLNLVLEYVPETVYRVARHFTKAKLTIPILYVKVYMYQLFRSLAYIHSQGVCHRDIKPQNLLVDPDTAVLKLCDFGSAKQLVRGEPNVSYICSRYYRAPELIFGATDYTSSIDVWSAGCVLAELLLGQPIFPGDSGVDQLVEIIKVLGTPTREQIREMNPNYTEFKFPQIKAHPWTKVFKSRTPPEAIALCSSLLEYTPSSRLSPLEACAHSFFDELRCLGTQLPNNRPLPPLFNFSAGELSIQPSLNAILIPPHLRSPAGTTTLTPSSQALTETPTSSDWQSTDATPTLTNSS

SMILES	IC50 (GSK 3α enzyme isoform) [µM]	IC50 (Hck) [µM]	IC50 [1] [µM]	IC50 [2] [µM]	IC50 (c-Src) [µM]	IC50 [3] [µM]
COc1ccc(-n2nc(C(C)(C)C)cc2NC(=O)Nc2ccc(OCc3ccnc(Nc4cnccn4)c3)c3ccccc23)cc1 [Example 38]	5.99	0.06	0.014	0.0096	0.153	0.0755
CC(C)(C)c1cc(NC(=O)Nc2ccc(OCc3ccnc(Nc4cnccn4)c3)c3ccccc23)n(-c2ccc(Cl)cc2)n1 [Example 45]	1.9	2.24	0.12	0.0171	7.89	1.44
Cc1ccc(-n2nc(C(C)(C)C)cc2NC(=O)Nc2ccc(OCc3ccnc(Nc4cncc(CO)n4)c3)c3ccccc23)cc1 [Example 21]	1.58	0.012	0.005	0.0079	0.033	0.0765
CC(C)(C)c1cc(NC(=O)Nc2ccc(OCc3ccnc(Nc4cncc(C5CC5)n4)c3)c3ccccc23)n(-c2ccc(CO)cc2)n1 [Example 25]	0.523	0.005	0.007	0.0058	0.01	0.0131
Cc1ccc(-n2nc(C(C)(C)C)cc2NC(=O)Nc2ccc(OCc3ccnc(Nc4cncc(C#N)n4)c3)c3ccccc23)cc1 [Example 11]	> 16	> 8.89	0.052	0.0125	0.6	> 1.6
COCCNC(=O)c1cnc(Nc2cc(COc3ccc(NC(=O)Nc4cc(C(C)(C)C)nn4-c4ccc(C)s4)c4ccccc34)ccn2)cn1 [Example 43]	7.92	0.053	0.012	0.0414	0.073	> 1.42
COc1ccc(-n2nc(C(C)(C)C)cc2NC(=O)Nc2ccc(OCc3ccnc(Nc4cncc(C5CC5)n4)c3)c3ccccc23)cc1 [Example 22]	1.71	0.014	0.022	0.0016	0.027	0.0196
Cc1ccc(-n2nc(C(C)(C)C)cc2NC(=O)Nc2ccc(OCc3ccnc(Nc4cnc(CN)cn4)c3)c3ccccc23)cc1 [Example 5, 1-(4-((2-((5-(Aminomethyl)pyrazin-2-yl)amino)pyridin-4-yl)methoxy)naphthalen-1-yl)-3-(3-(tert-butyl)-1-(p-tolyl)-1H-pyrazol-5-yl)urea]	2.77	< 0.00048	< 0.00048	0.0024	< 0.00048	0.474
COCCNC(=O)c1cnc(Nc2cc(COc3ccc(NC(=O)Nc4cc(C(C)(C)C)nn4-c4csc(C)c4)c4ccccc34)ccn2)cn1 [Example 44]	> 14.2	0.058	0.011	0.0522	0.233	1.15
